In patent US6576635B2, “Compositions comprising trimetrexate” (MedImmune Oncology, Inc., priority 1999, dated 2003):
Blank lines part the entries; values can stand above or below the molecule they belong to.

Legend:
[1] = Relative light stability of dosage forms; assay type: physicochemical
From the text: (§1) Dosage forms of trimetrexate glucuronate and trimetrexate ascorbate were dispersed in thin films on watch glasses and exposed to illumination in an air atmosphere over time. The overall illumination was approximately 0.28 million lux hours per day and the integrated near ultraviolet energy was approximately 210 watt hours per square meter per day. Therefore at day 9 the dosage forms had received approximately 2.5 million lux hours of illumination and approximately 1900 watt hours per square meter of integrated near ultraviolet energy. The dosage forms were tested over time for trimetrexate decomposition and observed for physical appearance. Both dosage forms were tested according to the method in Example 2, except the amount of ascorbic acid equivalent to that in the dosage form was added to the trimetrexate HPLC standards being used to evaluate the ascorbate formulation to give equivalent response factors.
(§2) In Table 9, the total quantity of trimetrexate free base is expressed as percent of the initial amount of trimetrexate, and the total amount of impurities is expressed as the sum of the weight percent of the aldehyde degradant and area percent of all other impurities. The oxidative degradation pathway of trimetrexate generates the aldehyde degradant. Its response factor has been determined to be 0.62 relative to that of trimetrexate. Therefore the weight percent of the aldehyde degradant is obtained by dividing the area percent value by the response factor of 0.62.

[2] = Relative thermal stability of reconstituted dosage forms; assay type: physicochemical; design: key to Appearance: S = satisfactory (pale green-yellow solution); U = unsatisfactory (discolored solution); conditions: 25 ° C.
Procedure: One bulk solution of each dosage form was prepared by combining its vials, held at 25 ° C. and 60% relative humidity in closed containers and tested over time for trimetrexate decomposition and observed for physical appearance. Both dosage forms were tested according to the method in Example 2, except the amount of ascorbic acid equivalent to that in the dosage form was added to the trimetrexate standards being used to evaluate the ascorbate formulation to give equivalent response factors.

[3] = Relative thermal stability of solid dosage forms; assay type: physicochemical; design: key to Appearance: S = satisfactory (pale green-yellow solid); conditions: 40° C.
Procedure: Both dosage forms were tested according to the method in Example 2, except the amount of ascorbic acid equivalent to that in the dosage form was added to the trimetrexate HPLC standards being used to evaluate the ascorbate formulation to give equivalent response factors.

[4] = Relative light stability of dosage forms; assay type: physicochemical; design: key: S = satisfactory (pale green-yellow solid)
From the text: as §1, §2

[5] = Relative light stability of dosage forms; assay type: physicochemical; design: key: S = satisfactory (pale green-yellow solid); U = unsatisfactory (discolored solid)
From the text: as §1, §2

[6] = cited from earlier work
[7] = in 1:1 methanol/water; cited from earlier work
[8] = exposed to oxygen at room temperature; cited from earlier work
[9] = tested on: P450 enzyme system; conditions: cited from earlier work
[10] = tested on: murine cell lines such as L1210, L5178Y, S-180, W-256; conditions: cited from earlier work
[11] = tested on: human tumor cells lines derived from breast, colon, lung, ovary, renal and melanoma cells; conditions: cited from earlier work
[12] = tested on: murine tumors such as B16 melanoma, colon 26 and 38, L1210 and P388 leukemia and CD8F mammary tumors; conditions: cited from earlier work
[13] = day 0 of illumination, weight percent aldehyde + area percent other impurities
[14] = day 0, reconstituted ~12.5 mg/ml, 60% RH
[15] = day 0, reconstituted ~12.5 mg/ml, 60% RH, HPLC area
[16] = day 0, reconstituted ~12.5 mg/ml, 60% relative humidity
[17] = day 0, thin film, illumination ~0.28 million lux hours per day, air
[18] = day 9 of illumination (~2.5 million lux hours)

% Aldehyde Degredant (w/w) ([1]; day 0 of illumination): 0.1%
% TMX of Initial ([1]; day 0 of illumination): 100.0%
% Total Imp. [1, 13]: 0.1%
% Aldehyde Degredant (w/w) ([1]; day 2 of illumination): 0.1%
% TMX of Initial ([1]; day 2 of illumination): 98.3%
% Total Imp. ([1]; day 2 of illumination): 0.4%
% Aldehyde Degredant (w/w) ([1]; day 4 of illumination): 0.1%
% TMX of Initial ([1]; day 4 of illumination): 97.7%
% Total Imp. ([1]; day 4 of illumination): 0.6%
% Aldehyde Degredant (w/w) ([1]; day 6 of illumination): 0.1%
% TMX of Initial ([1]; day 6 of illumination): 97.1%
% Total Imp. ([1]; day 6 of illumination): 1.0%
% Aldehyde Degredant (w/w) ([1]; day 9 of illumination): 0.2%
% TMX of Initial ([1]; day 9 of illumination): 96.1%
% Total Imp. ([1]; day 9 of illumination): 1.4%
% Label Claim [2, 14]: 99.0%
% Total Imp. [2, 15]: 0.1%
Appearance [2, 16]: S
% Label Claim ([2]; day 1, reconstituted, 60% RH): 98.5%
% Total Imp. ([2]; day 1, reconstituted, 60% RH): 0.1%
Appearance ([2]; day 1, reconstituted, 60% RH): S
% Label Claim ([2]; day 2, reconstituted, 60% RH): 98.4%
% Total Imp. ([2]; day 2, reconstituted, 60% RH): 0.1%
Appearance ([2]; day 2, reconstituted, 60% RH): S
% Label Claim ([2]; day 3, reconstituted, 60% RH): 98.8%
% Total Imp. ([2]; day 3, reconstituted, 60% RH): 0.2%
Appearance ([2]; day 3, reconstituted, 60% RH): S
% Label Claim ([2]; day 4, reconstituted, 60% RH): 101.0%
% Total Imp. ([2]; day 4, reconstituted, 60% RH): 0.4%
Appearance ([2]; day 4, reconstituted, 60% RH): S
% Label Claim ([2]; day 5, reconstituted, 60% RH): 98.2%
% Total Imp. ([2]; day 5, reconstituted, 60% RH): 0.3%
Appearance ([2]; day 5, reconstituted, 60% RH): S
% Label Claim ([2]; day 6, reconstituted, 60% RH): 96.5%
% Total Imp. ([2]; day 6, reconstituted, 60% RH): 0.4%
Appearance ([2]; day 6, reconstituted, 60% RH): S
% Label Claim ([2]; day 7, reconstituted, 60% RH): 98.7%
% Total Imp. ([2]; day 7, reconstituted, 60% RH): 0.6%
Appearance ([2]; day 7, reconstituted, 60% RH): S
% Label Claim ([3]; 1 month, 75% RH): 100.0%
% Total Imp. ([3]; 1 month, 75% RH, HPLC area): <0.1%
Appearance ([3]; 1 month, 75% relative humidity): S
% Label Claim ([3]; 2 months, 75% RH): 99.6%
% Total Imp. ([3]; 2 months, 75% RH): <0.1%
Appearance ([3]; 2 months, 75% RH): S
% Label Claim ([3]; 3 months, 75% RH): 98.9%
% Total Imp. ([3]; 3 months, 75% RH): <0.1%
Appearance ([3]; 3 months, 75% RH): S
Appearance [4, 17]: S
Appearance ([4]; day 2 of illumination): S
Appearance ([4]; day 4 of illumination): S
Appearance ([4]; day 6 of illumination): S
Appearance [4, 18]: S
SMILES: COc1cc(NCc2ccc3nc(N)nc(N)c3c2C)cc(OC)c1OC.O=C1O[C@H]([C@@H](O)CO)C(O)=C1O [Trimetrexate Ascorbate]

% Aldehyde Degredant (w/w) ([1]; day 0 of illumination): 0.3%
% TMX of Initial ([1]; day 0 of illumination): 100.0%
% Total Imp. [1, 13]: 0.9%
% Aldehyde Degredant (w/w) ([1]; day 2 of illumination): 2.0%
% TMX of Initial ([1]; day 2 of illumination): 94.4%
% Total Imp. ([1]; day 2 of illumination): 3.1%
% Aldehyde Degredant (w/w) ([1]; day 4 of illumination): 3.8%
% TMX of Initial ([1]; day 4 of illumination): 92.4%
% Total Imp. ([1]; day 4 of illumination): 5.6%
% Aldehyde Degredant (w/w) ([1]; day 6 of illumination): 5.6%
% TMX of Initial ([1]; day 6 of illumination): 87.9%
% Total Imp. ([1]; day 6 of illumination): 8.1%
% Aldehyde Degredant (w/w) ([1]; day 9 of illumination): 8.2%
% TMX of Initial ([1]; day 9 of illumination): 83.6%
% Total Imp. ([1]; day 9 of illumination): 11.8%
% Label Claim [2, 14]: 95.9%
% Total Imp. [2, 15]: 0.2%
Appearance [2, 16]: S
% Label Claim ([2]; day 1, reconstituted, 60% RH): 98.6%
% Total Imp. ([2]; day 1, reconstituted, 60% RH): 0.2%
Appearance ([2]; day 1, reconstituted, 60% RH): S
% Label Claim ([2]; day 2, reconstituted, 60% RH): 96.8%
% Total Imp. ([2]; day 2, reconstituted, 60% RH): 0.4%
Appearance ([2]; day 2, reconstituted, 60% RH): S
% Label Claim ([2]; day 3, reconstituted, 60% RH): 97.1%
% Total Imp. ([2]; day 3, reconstituted, 60% RH): 0.5%
Appearance ([2]; day 3, reconstituted, 60% RH): U
% Label Claim ([2]; day 4, reconstituted, 60% RH): 96.1%
% Total Imp. ([2]; day 4, reconstituted, 60% RH): 0.8%
Appearance ([2]; day 4, reconstituted, 60% RH): U
% Label Claim ([2]; day 5, reconstituted, 60% RH): 96.5%
% Total Imp. ([2]; day 5, reconstituted, 60% RH): 1.1%
Appearance ([2]; day 5, reconstituted, 60% RH): U
% Label Claim ([2]; day 6, reconstituted, 60% RH): 95.0%
% Total Imp. ([2]; day 6, reconstituted, 60% RH): 1.5%
Appearance ([2]; day 6, reconstituted, 60% RH): U
% Label Claim ([2]; day 7, reconstituted, 60% RH): 92.1%
% Total Imp. ([2]; day 7, reconstituted, 60% RH): 1.9%
Appearance ([2]; day 7, reconstituted, 60% RH): U
% Label Claim ([3]; 1 month, 75% RH): 99.6%
% Total Imp. ([3]; 1 month, 75% RH, HPLC area): 0.1%
Appearance ([3]; 1 month, 75% relative humidity): S
% Label Claim ([3]; 2 months, 75% RH): 100.7%
% Total Imp. ([3]; 2 months, 75% RH): 0.2%
Appearance ([3]; 2 months, 75% RH): S
% Label Claim ([3]; 3 months, 75% RH): 98.0%
% Total Imp. ([3]; 3 months, 75% RH): 0.3%
Appearance ([3]; 3 months, 75% RH): S
Appearance [4, 17]: S
Appearance ([5]; day 2 of illumination): U
Appearance ([5]; day 4 of illumination): U
Appearance ([5]; day 6 of illumination): U
Appearance [5, 18]: U
SMILES: COc1cc(NCc2ccc3nc(N)nc(N)c3c2C)cc(OC)c1OC.O=C(O)[C@H]1O[C@H](O)[C@H](O)[C@@H](O)[C@@H]1O [Trimetrexate Glucuronate]

SMILES: COc1cc(NCc2ccc3nc(N)nc(N)c3c2C)cc(OC)c1OC [trimetrexate free base, 2,4-diamino-5-methyl-6-[(3,4,5-trimethoxyanilino)methyl]quinazoline]
water solubility [6]: < 100 µg/mL
pKa [7]: 8.0
decomposition [8]: decomposes over time
metabolism [9]: metabolized by a P450 enzyme system
in vitro antitumor activity [10]: in vitro antitumor activity
in vitro activity against human tumor cell lines [11]: in vitro activity
in vivo utility against murine tumors [12]: in vivo utility
